This test relates to HIV-1 IIIB. Nature of the test: Anti-HIV-1 activity in MT-2 cells, virus-induced cytopathic effect (CellTiter-Glo). It counts as cell-based. Here is the method:
MT-2 cells were maintained in RPMI-1640 medium supplemented with antibiotics and 10% fetal bovine serum (FBS). MT-2 cells were infected with HIV-1 IIIB at a multiplicity of infection (moi) of 0.01 and added to 96-well plates with serial dilutions of tested compounds at a density of 20,000 cells/well. […] Activity against NRTI-resistant mutants was determined in parallel with wild-type control virus and fold change in EC50 was calculated.
(Damage to the host cells serves as the signal in cytopathic effect assays.)

The results in this text go back to US20100093667A1, “SALTS OF HIV INHIBITOR COMPOUNDS” (Gilead Sciences, Inc., priority 2008, published 2010).

The term EC50 denotes the concentration that produces a half-maximal response. The low end stands for greater potency, the high end for weaker potency. Molecule `CCOC(=O)[C@H](C)N[P@](=O)(CO[C@@H]1C=C(F)[C@H](n2cnc3c(N)ncnc32)O1)Oc1ccccc1` (single isomer, unassigned) [Prodrug] gave a half-maximal effective concentration (EC50) (Human immunodeficiency virus 1, MT2, 120 h, MT-2 cells, HIV-1 IIIB, 5-day incubation, mean ± SD) of 0.15 ± 0.04 µM. For the same molecule, the “more potent than the parent compound” value (MT-2) is recorded as 71 fold.
